In patent US6448442B1, “Contrast media” (Amersham Health AS, priority 1999, dated 2002):
Where two headings read alike, the source gives them in different places.

Experiments:
[1] = Solubility (remark in Table 2); format: physicochemical; conditions: aqueous solution, no viscosity given
[2] = Viscosity in aqueous solution at 20° C. (Example 82, Tables 1 and 2); format: physicochemical; conditions: for Viscosity 350 mgI/ml (CALCULATED): calculated for 350 mgI/ml; for Viscosity at 400 mgI/ml (CALCULATED): calculated for 400 mgI/ml
Procedure: The viscosities in aqueous solution at 20° C. for some further compounds described above were determined and are listed in Table 2. […]

[3] = Viscosity at 37° C. (Table 3); format: physicochemical; conditions: for Viscosity at 350 mgI/ml (CALCULATED): calculated for 350 mgI/ml
[4] = 350 mgI/ml, 20° C., data from literature; cited from earlier work
[5] = Determination of viscosity (Example 121, flow time in syringe against reference sample); format: physicochemical; conditions: 350 mgI/ml, 20° C.
Procedure: The apparatus consisted of a thermostated 10 μl graduated sample syringe connected to a conical shaped 100 μl sample vial. The syringe needle as well as a probe for temperature measurements (±0.2° C.) was inserted through an airtight septum at the top of the vial. Through the septum was also inserted a small tubing connected to an air syringe via a PTFE tubing.
To determine viscosity, 15≧75 μl of the sample liquid was placed at the bottom of the sample vial. The liquid was forced up into the sample syringe by a slight over pressure generated manually by the air syringe. When the syringe was almost filled, the over pressure was released so the liquid, forced only by gravity, could flow freely out from the syringe back into the vial. The time for the liquid surface to pass between the marks of e.g. 5 and 10 μl in the syringe was measured […]
The viscosity is calculated as follows: […]
ηS=Viscosity of the sample
ηR=Viscosity of a reference sample with known viscosity and with similar composition as the sample e.g. Iohexol or Iodixanol dS=Density of sample solution dR=Density of reference solution tS=Average time for sample surface to pass between two marks in the syringe tR=Corresponding time for reference sample
The results of these determinations of viscosity for various of the present Examples and two commercially available X-ray contrast media are shown in Table 1′ below. In all cases, the values refer to concentrations of 350 mgI/ml at a temperature of 20° C.

With `OCc1cc(OCC(O)CO)c(I)c(OCC(O)CO)c1I` (stereo not shown) [Example 78, 3,5-Bis-(2,3-dihydroxypropyloxy)-2,4-diiodobenzyl alcohol] as the molecule, how does the solubility [1] read?
The solubility was “low solubility”.

For `O=C(Nc1c(I)c(CO)c(I)c(NC(=O)C(O)C(O)CO)c1I)C(O)C(O)CO` (stereo not shown) [Example 79, N,N′-Bis-(2,3,4-trihydroxybutanoyl)-3,5-diamino-2,4,6-triiodobenzyl alcohol], which “Viscosity 350 mgI/ml (CALCULATED)” value [2] is on record?
The value was 10.4 mPas.

And the “Viscosity at 400 mgI/ml (CALCULATED)” value [2]?
Its value is 17.2 mPas.

And the “Viscosity 20° C.” value ([2]; concentration 379 mgI/ml)?
Its value is 14.4 mPas.

What about the Viscosity 37° C. ([3]; 379 mgI/ml) of the same molecule?
Its Viscosity 37° C. is 6.9 mPa·s.

What about the Viscosity at 350 mgI/ml (CALCULATED) [3] of the same molecule?
The Viscosity at 350 mgI/ml (CALCULATED) was 5.9 mPa·s.

For `O=C(NCC(O)CO)c1c(I)c(CO)c(I)c(NC(=O)C(O)C(O)CO)c1I` (stereo not shown) [Example 80, 5-[N′-(2,3,4-Trihydroxybutanoyl)amino]-3-hydroxymethyl-N-(2,3-dihydroxypropyl)-2,4,6-triiodobenzamide], which “Viscosity 350 mgI/ml (CALCULATED)” value [2] is on record?
Its value is 9.4 mPas.

What about the “Viscosity at 400 mgI/ml (CALCULATED)” value [2] of the same molecule?
The value was 14.8 mPas.

What about the “Viscosity 20° C.” value ([2]; concentration 444 mgI/ml) of the same molecule?
The value was 23 mPas.

And the Viscosity 37° C. ([3]; 444 mgI/ml)?
The Viscosity 37° C. was 11 mPa·s.

And the Viscosity at 350 mgI/ml (CALCULATED) [3]?
Its Viscosity at 350 mgI/ml (CALCULATED) is 5.2 mPa·s.

Which “Viscosity 350 mgI/ml (CALCULATED)” value [2] does the source give for `O=C(NC(CO)C(O)CO)c1c(I)c(CO)c(I)c(NC(=O)C(O)C(O)CO)c1I` (stereo not shown) [Example 81, 5-[N′-(2,3,4-Trihydroxybutanoyl)-amino]-3-hydroxymethyl-N-(1,3,4-trihydroxybut-2-yl)-2,4,6-triiodobenzamide] here?
The value was 12.2 mPas.

What about the “Viscosity at 400 mgI/ml (CALCULATED)” value [2] of the same molecule?
The value was 21.5 mPas.

What about the “Viscosity 20° C.” value ([2]; concentration 376 mgI/ml) of the same molecule?
Its value is 16.2 mPas.

And the Viscosity 37° C. ([3]; 376 mgI/ml)?
The Viscosity 37° C. was 8.9 mPa·s.

And the Viscosity at 350 mgI/ml (CALCULATED) [3]?
The Viscosity at 350 mgI/ml (CALCULATED) was 6.1 mPa·s.

Which Viscosity [4] does the source give for `CN(C(=O)CO)c1c(I)c(C(=O)NCC(O)CO)c(I)c(C(=O)NCC(O)CO)c1I` (stereo not shown) [Iomeprol] here?
Its Viscosity is 15.4 mPas.

For “N,N′-Bis(2,3-dihydroxybutyryl)-3,5-diamino-2,4,6-triiodomandeloamide [Example 101]”, which Viscosity [5] is on record?
Its Viscosity is 13.4 mPas.

Which Viscosity [5] does the source give for “N-(2R,3S,4-Trihydroxybutyryl)-N′-hydroxyacetyl-3,5-diamino-2,4,6-triiodomandeloamide [Example 100]” here?
Its Viscosity is 9.7 mPas.
